Data set [1] deals with T1, HIV-1 protease (Q7S mutant form) (Human immunodeficiency virus type 1 group M subtype B, UniProt P04585, Q495S).
T1 construct: made in house
Kind of data set: HIV-1 Protease RET assay. The format is biochemical. The note with it: Ave. Ki (nM), RET assay, Q7S enzyme, Morrison tight binding fit. The method, boiled down: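 Q7S HIV-1 protease, refolded from urea, 2 nM active dimer with 5 μM EDANS/DABCYL peptide cleaved at Tyr-Pro; fluorescence 340/490 nm. 12 min at 37 °C in 0.1M sodium acetate pH 4.8, 1M NaCl, 10% DMSO. Ki from Morrison tight-binding fit.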

In data set [2] the test system is HIV-1 (HIV-1 RF, HIV-1 NL4-3) in CEM-SS / MT-2 cells. Kind of data set: Cytopathic effect (CPE) inhibition assay (XTT/MTT dye reduction). The format is cell-based. The following applies: Human immunodeficiency virus 1, NL43; read-out: Ave CPE EC50. The method, boiled down:
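CEM-SS or MT-2 cells were infected with HIV-1 RF or NL4-3 (moi 0.025–0.819) and plated at 2×10^4 cells/well with half-log compound dilutions for 6 days. Viability was read by XTT formazan at 450 nm after 4 h. EC50 restores formazan to 50% of uninfected untreated cells, CC50 halves it in uninfected cells, and TI = CC50/EC50.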

The next data set has as its system 461, 84V, 90M virus. Nature of the data set: Phenotypic susceptibility assay at Virologic, Inc. The format is cell-based, HIV-1. The following applies: Human immunodeficiency virus 1, read-out: EC50 or IC50 (mM), values with asterisk (IC50). Here is the method: Compounds were tested in phenotypic susceptibility assays at Virologic, Inc., (See Petropoulos C. J., Parkin N. T., Limoli K. L., Lie Y. S., Wrin T., Huang W., Tian H., Smith D., Winslow G. A., Capon D J, Whitcomb J M. 2000, “A novel phenotypic drug susceptibility assay for human immunodeficiency virus type 1,” Antimicrob Agents Chemother 44(4):920–928) or using the assay described here. MT-2 cells were infected with either HIV-1 NL4-3 or HIV-1 NL4-3([…]) and incubated in the presence of serial 0.5 log dilutions of test compounds. Three days later, culture supernatants were collected and virus production, as determined by p24 ELISA, was assayed. Percent inhibition was calculated as p24 concentration in compound-treated samples as compared to infected, compound-free controls. Inhibition of viral replication is determined by measuring reduction in HIV p24 present in the culture supernatant, using a Beckman-Coulter p24HIV-1 Ag EIA kit and following the supplied protocol. Absorbance is read on a MRX microplate reader (Dynex Technologies). The EC50 was calculated as the concentration of compound that effected a decrease in the p24 production by infected, compound-treated cells to 50% of that produced by infected, compound-free cells.

Structures are written as SMILES. pEC50: −log10 of the molar value.

In turn, `Cc1c(O)cccc1C(=O)N[C@@H](Cc1ccccc1)[C@H](O)C(=O)N1CSC(C)(C)[C@H]1C(=O)NC[C@H]1CCCO1` [Example A12, (R)-3-((2S,3S)-2-Hydroxy-3-{[1-(3-hydroxy-2-methyl-phenyl)-methanoyl]-amino}-4-phenyl-butanoyl)-5,5-dimethyl-thiazolidine-4-carboxylic acid [(R)-1-(tetrahydro-furan-2-yl)methyl]-amide] came in with a melting point of 105 to 107 °C. In addition, the Ki in data set [1] came out at 5.5 nM. Also, the pEC50 in data set [2] is 6.90.

For the molecule `Cc1c(O)cccc1C(=O)N[C@@H](Cc1ccccc1)[C@H](O)C(=O)N1CSC(C)(C)[C@H]1C(=O)N[C@@H]1C=CCCC1` [Example A32, (R)-3-((2S,3S)-2-Hydroxy-3-{[1-(3-hydroxy-2-methyl-phenyl)-methanoyl]-amino}-4-phenyl-butanoyl)-5,5-dimethyl-thiazolidine-4-carboxylic acid (S)-cyclohex-2-enylamide], the melting point lay within 177 to 179 °C. The molecule also had a Ki in data set [1] below 0.1 nM. Moreover, the pEC50 in data set [2] is 7.92. In addition, the IC50 with 461, 84V, 90M virus worked out at 55 nM.

Consider `Cc1c(O)cccc1C(=O)N[C@@H](Cc1ccccc1)[C@H](O)C(=O)N1CSC(C)(C)[C@H]1C(=O)N[C@H]1CCCc2ccccc21` [Example A1, 3-[2-Hydroxy-3-(3-hydroxy-2-methyl-benzoylamino)-4-phenyl-butyryl]-5,5-dimethyl-thiazolidine-4-carboxylic acid (1,2,3,4-tetrahydro-naphthalen-1-yl)-amide], for which the melting point fell in the range of 125 to 126 °C. In addition, the Ki in data set [1] is 0.21 nM. Besides, in data set [2], the pEC50 is 7.54.

In the case of `Cc1cccc(C)c1OCC(=O)N[C@@H](Cc1ccccc1)[C@H](O)C(=O)N1CSC(C)(C)[C@H]1C(=O)N[C@H]1CCOc2ccccc21` [Example B30, (R)-3-{(2S,3S)-3-[2-(2,6-Dimethyl-phenoxy)-ethanoylamino]-2-hydroxy-4-phenyl-butanoyl}-5,5-dimethyl-thiazolidine-4-carboxylic acid (S)-chroman-4-ylamide], the melting point is 105 to 107 °C. In data set [1], this molecule had a Ki of 0.21 nM. Besides, the pEC50 in data set [2] was 6.35.

On to `Cc1c(O)cccc1C(=O)N[C@@H](Cc1ccccc1)[C@H](O)C(=O)N1CSC(C)(C)[C@H]1C(=O)N[C@H]1C=CCCC1` [Example A38, (R)-3-((2S,3S)-2-Hydroxy-3-{[1-(3-hydroxy-2-methyl-phenyl)-methanoyl]-amino}-4-phenyl-butanoyl)-5,5-dimethyl-thiazolidine-4-carboxylic acid (R)-cyclohex-2-enylamide], for which the melting point was in the range of 193 to 195 °C. The Ki in data set [1] was below 0.1 nM. In data set [2], the pEC50 was 7.42.

In turn, `Cc1c(O)cccc1C(=O)N[C@@H](Cc1ccccc1)[C@H](O)C(=O)N1CSC(C)(C)[C@H]1C(=O)N[C@@H]1CCSc2ccccc21` [Example A18, (R)-3-((2S,3S)-2-Hydroxy-3-{[1-(3-hydroxy-2-methyl-phenyl)-methanoyl]-amino}-4-phenyl-butanoyl)-5,5-dimethyl-thiazolidine-4-carboxylic acid (R)-thiochroman-4-ylamide] gave a melting point of 125 to 127 °C. The same molecule had an inhibition constant Ki in data set [1] of 0.3 nM. In data set [2], the pEC50 was 7.57.

Molecule `Cc1c(O)cccc1C(=O)N[C@@H](Cc1ccccc1)[C@H](O)C(=O)N1CSC(C)(C)[C@H]1C(=O)N[C@@H]1CCOc2ccccc21` [Example A16, (R)-3-((2S,3S)-2-Hydroxy-3-{[1-(3-hydroxy-2-methyl-phenyl)-methanoyl]-amino}-4-phenyl-butanoyl)-5,5-dimethyl-thiazolidine-4-carboxylic acid (R)-chroman4-ylamide] displayed a melting point of 135 to 136 °C. Moreover, affinity in data set [1] was put at a Ki of 0.43 nM. The pEC50 in data set [2] was 6.60.

For `Cc1c(O)cccc1C(=O)N[C@@H](Cc1ccccc1)[C@H](O)C(=O)N1CSC(C)(C)[C@H]1C(=O)N[C@H]1CCSc2ccccc21` [Example A19, (R)-3-((2S,3S)-2-Hydroxy-3-{[1-(3-hydroxy-2-methyl-phenyl)-methanoyl]-amino}-4-phenyl-butanoyl)-5,5-dimethyl-thiazolidine-4-carboxylic acid (S)-thiochroman-4-ylamide], the melting point lay in the range of 125 to 127 °C. The same molecule gave a Ki in data set [1] of 0.21 nM. For the same molecule, the pEC50 in data set [2] is 7.82.

As for `COc1cccc(CNC(=O)[C@H]2N(C(=O)[C@@H](O)C(Cc3ccccc3)NC(=O)c3cccc(O)c3C)CSC2(C)C)c1` (single isomer, unassigned), the melting point lay within 108 to 110 °C.

On to `Cc1c(O)cccc1C(=O)N[C@@H](Cc1ccccc1)[C@H](O)C(=O)N1CSC(C)(C)[C@H]1C(=O)N[C@@H]1CCc2ccccc21` [Example A29, (R)-3-((2S,3S)-2-Hydroxy-3-{[1-(3-hydroxy-2-methyl-phenyl)-methanoyl]-amino}-4-phenyl-butanoyl)-5,5-dimethyl-thiazolidine4-carboxylic acid (R)-indan-1-ylamide], for which the melting point is 128 to 130 °C. For the same molecule, the Ki in data set [1] stood at 0.31 nM. The pEC50 in data set [2] is 6.93.

With `Cc1c(O)cccc1C(=O)N[C@@H](Cc1ccccc1)[C@H](O)C(=O)N1CSC(C)(C)[C@H]1C(=O)N[C@@H]1CCCc2ccccc21` [Example A4, 3-[2-Hydroxy-3-(3-hydroxy-2-methyl-benzoylamino)-4-phenyl-butyryl]-5,5-dimethyl-thiazolidine-4-carboxylic acid (1,2,3,4-tetrahydro-naphthalen-1-yl)-amide], the melting point was in the range of 123 to 125 °C. For the same molecule, the Ki in data set [1] is 2.2 nM. The pEC50 in data set [2] is 6.57.

On to `Cc1ccccc1CNC(=O)[C@H]1N(C(=O)[C@@H](O)[C@H](Cc2ccccc2)NC(=O)COc2c(C)cccc2C)CSC1(C)C` [Example B7, (R)-3-{(2S,3S)-3-[2-(2,6-Dimethylphenoxy)-ethanoylamino]-2-hydroxy-4-phenyl-butanoyl}-5,5-dimethylthiazolidine-4-carboxylic acid 2-methyl-benzylamide], for which, in data set [1], the inhibition constant Ki is below 0.1 nM. The pEC50 in data set [2] is 6.58. For the same molecule, the IC50 in the data set with 461, 84V, 90M virus was found to be 333 nM.

Molecule `Cc1ccccc1CNC(=O)[C@H]1N(C(=O)[C@@H](O)[C@H](Cc2ccccc2)NC(=O)c2cccc3c2CCN3)CSC1(C)C` [Example B6, 2,3-Dihydro-1H-indole-4-carboxylic acid {(1S,2S)-1-benzyl-3-[(R)-5,5-dimethyl-4-(2-methyl-benzylcarbamoyl)-thiazolidin-3-yl]-2-hydroxy-3-oxo-propyl}-amide] displayed a Ki in data set [1] of 0.31 nM. In data set [2], the pEC50 is 7.02. Further, the IC50 in the data set on 461, 84V, 90M virus turned out to be 405 nM.

In turn, `Cc1c(O)cccc1C(=O)N[C@@H](Cc1ccccc1)[C@H](O)C(=O)N1CSC(C)(C)[C@H]1C(=O)NC1CCC(C)CC1` (stereo partly drawn) [Example A36, (R)-3-((2S,3S)-2-Hydroxy-3-{[1-(3-hydroxy-2-methyl-phenyl)-methanoyl]-amino}-4-phenyl-butanoyl)-5,5-dimethyl-thiazolidine-4-carboxylic acid (4-methyl-cyclohexyl)-amide] registered a melting point of 192 to 194 °C. The molecule further yielded a Ki in data set [1] of 0.78 nM. Further, the pEC50 in data set [2] is 6.46.

Source of the values: US7094909B2, “HIV protease inhibitors, compositions containing the same, their pharmaceutical uses and materials for their synthesis” (priority 2001, dated 2006).
